Source: patent US8492375B2, “1-benzoyl substituted diazepine derivatives as selective histamine H3 receptor agonists” (Glaxo Group Limited, priority 2003, dated 2013)
Where a name gives a salt, the structure may show the parent alone.

Key:
[1] = target: histamine H3 receptor (Homo sapiens, UniProt Q9Y5N1); test: Histamine H3 functional antagonist assay ([35S]GTPγS binding, SPA, membranes of CHO K1 cells); details: pKb, antagonism of 0.3 μM histamine, membranes with human H3 receptor
Experimental: Ligated DNA was transformed into competent DH5α E. coli host bacterial cells and plated onto Luria Broth (LB) agar containing Zeocin™ (an antibiotic which allows the selection of cells expressing the sh ble gene which is present on pGene and pSwitch) at 50 μg ml^−1. Colonies containing the re-ligated plasmid were identified by restriction analysis. DNA for transfection into mammalian cells was prepared from 250 ml cultures of the host bacterium containing the pGeneH3 plasmid and isolated using a DNA preparation kit (Qiagen Midi-Prep) as per manufacturers guidelines (Qiagen).
CHO K1 cells previously transfected with the pSwitch regulatory plasmid (InVitrogen) were seeded at 2×10e6 cells per T75 flask in Complete Medium, containing Hams F12 (GIBCOBRL, Life Technologies) medium supplemented with 10% v/v dialysed foetal bovine serum, L-glutamine, and hygromycin (100 μg ml^−1), 24 hours prior to use. Plasmid DNA was transfected into the cells using Lipofectamine plus according to the manufacturers guidelines (InVitrogen). 48 hours post transfection cells were placed into complete medium supplemented with 500 μg ml^−1 Zeocin™
10-14 days post selection 10 nM Mifepristone (InVitrogen), was added to the culture medium to induce the expression of the receptor. […] Approximately 1×10e7 cells were examined for receptor expression by staining with a rabbit polyclonal antibody, 4a, raised against the N-terminal domain of the histamine H3 receptor, incubated on ice for 60 minutes, followed by two washes in sorting medium. […] Following two further washes with Sorting Medium, cells were filtered through a 50 μm Filcon™ (BD Biosciences) and then analysed on a FACS Vantage SE Flow Cytometer fitted with an Automatic Cell Deposition Unit. […] Positively stained cells were sorted as single cells into 96-well plates, containing Complete Medium containing 500 μg ml^−1 Zeocin™ and allowed to expand before reanalysis for receptor expression via antibody and ligand binding studies.
(ii) Membrane Preparation from Cultured Cells
All steps of the protocol are carried out at 4° C. and with pre-cooled reagents. The cell pellet is resuspended in 10 volumes of buffer A2 containing 50 mM N-2-hydroxyethylpiperazine-N′-2-ethanesulfonic acid (HEPES) (pH 7.40) supplemented with 10e-4M leupeptin (acetyl-leucyl-leucyl-arginal; Sigma L2884), 25 μg/ml bacitracin (Sigma B0125), 1 mM ethylenediamine tetra-acetic acid (EDTA), 1 mM phenylmethylsulfonyl fluoride (PMSF) and 2×10e-6M pepstain A (Sigma). The cells are then homogenised by 2×15 second bursts in a 1 liter glass Waring blender, followed by centrifugation at 500 g for 20 minutes. The supernatant is then spun at 48,000 g for 30 minutes. The pellet is resuspended in 4 volumes of buffer A2 by vortexing for 5 seconds, followed by homogenisation in a Dounce homogeniser (10-15 strokes). At this point the preparation is aliquoted into polypropylene tubes and stored at −70° C.
(II) Histamine H3 Functional Antagonist Assay
The plate is then incubated on a shaker at room temperature for 30 minutes followed by centrifugation for 5 minutes at 1500 rpm. The plate is read between 3 and 6 hours after completion of centrifuge run in a Wallac Microbeta counter on a 1 minute normalised tritium count protocol. Data is analysed using a 4-parameter logistic equation. Basal activity used as minimum i.e. histamine not added to well.

[2] = target: T1, human H1 receptor (Homo sapiens, UniProt P35367); test: Histamine H1 functional antagonist assay (FLIPR, histamine induced increase in fluorescence); format: cell-based; details: Chinese hamster ovary cells stably expressing the human H1 receptor; read-out: antagonism pKb, histamine H1 functional antagonist assay (converted)
T1 construct: expressed in transfected cells
Experimental: (iii) Generation of Histamine H1 Cell Line
The human H1 receptor was cloned using known procedures described in the literature [Biochem. Biophys. Res. Commun.
(III) Histamine H1 Functional Antagonist Assay
Compounds are assayed in a black walled clear bottom 384-well plate with cells seeded at 10000 cells/well. […] Each well is treated with 10 μl of a solution of FLUO4AM (10 μM in Tyrodes buffer at pH 7.40) and plates are then incubated for 60 minutes at 37° C. Wells are then washed with Tyrodes buffer using a EMBLA cell washer system, leaving 400 buffer in each well, and then treated with 100 of test compound in Tyrodes buffer. Each plate is incubated for 30 min to allow equilibration of the test compound with the receptor. Each well is then treated with 100 of histamine solution in Tyrodes buffer.
Functional antagonism is indicated by a suppression of histamine induced increase in fluorescence, as measured by the FLIPR system (Molecular Devices). By means of concentration effect curves, functional potencies are determined using standard pharmacological mathematical analysis.

Sequence of histamine H3 receptor (Q9Y5N1 whole entry): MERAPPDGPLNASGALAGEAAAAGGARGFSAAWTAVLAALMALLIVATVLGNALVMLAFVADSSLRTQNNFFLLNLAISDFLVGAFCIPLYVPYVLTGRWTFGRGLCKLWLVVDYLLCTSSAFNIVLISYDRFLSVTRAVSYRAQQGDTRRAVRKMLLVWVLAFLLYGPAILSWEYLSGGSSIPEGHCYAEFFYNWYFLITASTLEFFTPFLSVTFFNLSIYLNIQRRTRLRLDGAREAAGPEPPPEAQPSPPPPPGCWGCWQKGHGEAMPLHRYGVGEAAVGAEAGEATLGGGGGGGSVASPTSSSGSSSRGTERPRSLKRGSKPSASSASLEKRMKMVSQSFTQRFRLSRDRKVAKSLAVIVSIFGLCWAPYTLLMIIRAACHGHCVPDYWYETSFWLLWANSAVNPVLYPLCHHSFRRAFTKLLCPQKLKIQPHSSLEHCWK
T1 sequence (P35367 whole entry): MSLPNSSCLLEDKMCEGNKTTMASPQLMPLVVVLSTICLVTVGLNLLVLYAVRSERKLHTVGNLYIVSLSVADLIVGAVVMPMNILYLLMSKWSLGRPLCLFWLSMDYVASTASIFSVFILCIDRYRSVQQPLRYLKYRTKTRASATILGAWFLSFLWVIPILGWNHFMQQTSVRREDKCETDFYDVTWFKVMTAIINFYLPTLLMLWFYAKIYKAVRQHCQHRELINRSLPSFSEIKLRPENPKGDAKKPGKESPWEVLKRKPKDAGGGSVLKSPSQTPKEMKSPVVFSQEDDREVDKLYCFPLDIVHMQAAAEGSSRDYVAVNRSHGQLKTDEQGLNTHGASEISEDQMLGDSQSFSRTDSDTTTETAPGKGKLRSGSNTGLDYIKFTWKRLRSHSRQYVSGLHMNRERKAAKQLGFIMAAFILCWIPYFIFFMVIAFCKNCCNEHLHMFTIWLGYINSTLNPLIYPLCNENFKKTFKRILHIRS

**Q.** `O=C(c1ccc(-c2ncco2)cc1)N1CCCN(C2CCC2)CC1` [Example 56, 1-Cyclobutyl-4-{[4-(1,3-oxazol-2-yl)phenyl]carbonyl}hexahydro-1H-1,4-diazepine hydrochloride] was tested. Which Kb [1] did it give?
**A.** The Kb was ≤ 1 nM.

**Q.** Which Kb [1] does the source give for `Cc1noc(-c2ccc(C(=O)N3CCCN(C4CCC4)CC3)cc2)n1` [Example 58, 1-Cyclobutyl-4-{[4-(3-methyl-1,2,4-oxadiazol-5-yl)phenyl]carbonyl}hexahydro-4H-1,4-diazepine hydrochloride] here?
**A.** The Kb was < 0.316 nM.

**Q.** What does the source list for `CNC(=O)c1ccc(-c2ccc(C(=O)N3CCCN(C(C)C)CC3)cc2)cn1` [Example 16, N-Methyl-5-(4-{[4-(1-isopropyl)hexahydro-1H-1,4-diazepin-1-yl]carbonyl}phenyl)-2-pyridinecarboxamide hydrochloride]?
**A.** Kb [1]: ≤ 1 nM; Kb [2]: > 1000 nM

**Q.** `CNC(=O)c1ccc(-c2ccc(C(=O)N3CCCN(C4CCC4)CC3)cc2)cn1` [Example 13, 5-{4-[(4-Cyclobutylhexahydro-1H-1,4-diazepin-1-yl)carbonyl]phenyl}-N-methyl-2-pyridinecarboxamide hydrochloride] was tested. Which Kb [1] did it give?
**A.** Its Kb is ≤ 1 nM.

**Q.** And the Kb [2]?
**A.** The Kb was > 1000 nM.

**Q.** `N#Cc1ccc(-c2ccc(C(=O)N3CCCN(C4CCC4)CC3)cc2)cn1` [Example 14, 5-{4-[(4-Cyclobutylhexahydro-1H-1,4-diazepin-1-yl)carbonyl]phenyl}-2-cyanopyridine hydrochloride] was tested. Which Kb [1] did it give?
**A.** Its Kb is ≤ 1 nM.

**Q.** And the Kb [2]?
**A.** Its Kb is > 1000 nM.

**Q.** What does the source list for `N#Cc1ccc(-c2ccc(C(=O)N3CCCN(C4CCC4)CC3)cc2)nc1` [Example 12, 6-{4-[(4-Cyclobutylhexahydro-1H-1,4-diazepin-1-yl)carbonyl]phenyl}-3-cyanopyridine hydrochloride]?
**A.** Kb [1]: < 0.316 nM; Kb [2]: > 1000 nM

**Q.** What does the source list for `O=C(c1ccc(-c2nc(-c3ccc(F)cc3)cs2)cc1)N1CCCN(C2CCC2)CC1` [Example 8, 1-Cyclobutyl-4-({4-[4-(4-fluorophenyl)-1,3-thiazol-2-yl]phenyl}carbonyl) hexahydro-1H-1,4-diazepine hydrochloride]?
**A.** Kb [1]: ≤ 1 nM; Kb [2]: > 1000 nM

**Q.** `CC(=O)c1ccc(-c2ccc(C(=O)N3CCCN(C4CCC4)CC3)cc2)cc1` [Example 2, 1-{4′-[(4-Cyclobutylhexahydro-1H-1,4-diazepin-1-yl)carbonyl]-4-biphenylyl}ethanone hydrochloride] was tested. Which Kb [1] did it give?
**A.** The Kb was < 0.316 nM.

**Q.** What about the Kb [2] of the same compound?
**A.** The Kb was > 1000 nM.

**Q.** How did the Kb [2] turn out when `CC(C)N1CCCN(C(=O)c2ccc(OC3CCOCC3)cc2)CC1` [Example 10, 1-(Isopropyl)-4-{[4-(tetrahydro-2H-pyran-4-yloxy)phenyl]carbonyl}hexahydro-1H-1,4-diazepine hydrochloride] was run?
**A.** The Kb was > 1000 nM.

**Q.** Which results are given for `O=C(c1ccc(-c2ccc(C(F)(F)F)nc2)cc1)N1CCCN(C2CCC2)CC1` [Example 11, 1-Cyclobutyl-4-({4-[6-(trifluoromethyl)-3-pyridinyl]phenyl}carbonyl)hexahydro-1H-1,4-diazepine hydrochloride]?
**A.** Kb [1]: < 0.316 nM; Kb [2]: > 1000 nM

**Q.** With `O=C(c1ccc(-c2cnc(C(F)(F)F)nc2)cc1)N1CCCN(C2CCC2)CC1` [Example 23, 1-Cyclobutyl-4-({4-[2-(trifluoromethyl)-5-pyrimidinyl]phenyl}carbonyl)hexahydro-1H-1,4-diazepine hydrochloride] as the compound, how does the Kb [1] read?
**A.** The Kb was ≤ 1 nM.

**Q.** What about the Kb [2] of the same compound?
**A.** Its Kb is > 1000 nM.

**Q.** Which Kb [2] does the source give for `CC(C)N1CCCN(C(=O)c2ccc(-c3ccc(C#N)nc3)cc2)CC1` [Example 15, 5-(4-{[4-(1-Isopropyl)hexahydro-1H-1,4-diazepin-1-yl]carbonyl}phenyl)-2-cyanopyridine hydrochloride] here?
**A.** Its Kb is > 1000 nM.

**Q.** What does the source list for `N#Cc1ccc(-c2ccc(C(=O)N3CCCN(C4CCC4)CC3)cc2)cc1` [Example 1, 4′-[(4-Cyclobutylhexahydro-1H-1,4-diazepin-1-yl)carbonyl]-4-biphenylcarbonitrile hydrochloride]?
**A.** Kb [1]: < 0.316 nM; Kb [2]: > 1000 nM

**Q.** What does the source list for `O=C(c1ccc(-c2ccc(C(F)(F)F)nn2)cc1)N1CCCN(C2CCC2)CC1` [Example 22, 1-Cyclobutyl-4-({4-[6-(trifluoromethyl)-3-pyridazinyl]phenyl}carbonyl)hexahydro-1H-1,4-diazepine hydrochloride]?
**A.** Kb [1]: ≤ 1 nM; Kb [2]: > 1000 nM

**Q.** What does the source list for `O=C(c1ccc(-n2cnnn2)cc1)N1CCCN(C2CCC2)CC1` [Example 7, 1-Cyclobutyl-4-{[4-tetrazol-1-yl)phenyl]carbonyl}hexahydro-1H-1,4-diazepine hydrochloride]?
**A.** Kb [1]: ≤ 1 nM; Kb [2]: > 1000 nM

**Q.** What does the source list for `O=C(c1ccc(N2CCS(=O)(=O)CC2)cc1)N1CCCN(C2CCC2)CC1` [Example 9, 1-Cyclobutyl-4-{[4-(1,1-dioxido-4-thiomorpholinyl)phenyl]carbonyl}hexahydro-1H-1,4-diazepine hydrochloride]?
**A.** Kb [1]: ≤ 1 nM; Kb [2]: > 1000 nM
